The values that follow come from article doi:10.1101/125930v1 (bioRxiv, 2017).

Some results are limits rather than exact numbers.

This test concerns purified E. coli protein synthesis system (PURE). The experiment in a line: Myc-peptide translation assay. The test is classed as biochemical. Particulars: MALDI-TOF, assuming similar ionization properties.

In the case of `N[C@H](Cc1ccc(O)cc1)C(=O)O` [^DTyr, D-tyrosine], the consecutive incorporations is reported as not above 2 (in the absence of EF-P) and not above 5 (with 8 μM EF-P).
For `N[C@@H](Cc1ccc(O)cc1)C(=O)O` [^LTyr, L-tyrosine], in that order: “up to 3” and “up to 7”.
